Consider 19 compounds from patent US10131673B2, “Piperidine substituted tricyclic pyrazolo[1,5-a]pyrimidine derivatives with inhibitory activity on the replication of the respiratory syncytial virus (RSV)” (priority 2014, dated 2018).

In one data set the test system is rgRSV224 virus. The data set can be described thus: microbe, parasite or virus in culture. It counts as cell-based, respiratory syncytial virus (RSV). The note with it: human respiratory syncytial virus, HeLa, 72 h, read-out: RSV HELA pEC50 (converted).

Procedure for HeLa cells: Black 384-well clear-bottom microtiter plates (Corning, Amsterdam, The Netherlands) were filled via acoustic drop ejection using the echo liquid handler (Labcyte, Sunnyvale, Calif.). 200 nL of compound stock solutions (100% DMSO) were transferred to the assay plates. 9 serial 4-fold dilutions of compound were made, creating per quadrant the same compound concentration. The assay was initiated by adding 10 μL of culture medium to each well (RPMI medium without phenol red, 10% FBS-heat inactivated, 0.04% gentamycin (50 mg/mL). All addition steps are done by using a multidrop dispenser (Thermo Scientific, Erembodegem, Belgium). Next, rgRSV224 virus (MOI=1) diluted in culture medium was added to the plates. rgRSV224 virus is an engineered virus that includes an additional GFP gene (Hallak L K, Spillmann D, Collins P L, Peeples M E. Glycosaminoglycan sulfation requirements for respiratory syncytial virus infection; Journal of virology (2000), 74(22), 10508-13) and was in-licensed from the NIH (Bethesda, Md., USA). Finally, 20 μL of a HeLa cell suspension (3,000 cells/well) were plated. Medium, virus- and mock-infected controls were included in each test. The wells contain 0.05% DMSO per volume. Cells were incubated at 37° C. in a 5% CO2 atmosphere. Three days post-virus exposure, viral replication was quantified by measuring GFP expression in the cells by an in house developed MSM laser microscope (Tibotec, Beerse, Belgium). The EC50 was defined as the 50% inhibitory concentration for GFP expression. In parallel, compounds were incubated for three days in a set of white 384-well microtiter plates (Corning) and the cytotoxicity of compounds in HeLa cells was determined by measuring the ATP content of the cells using the ATPlite kit (Perkin Elmer, Zaventem, Belgium) according to the manufacturer's instructions. The CC50 was defined as the 50% concentration for cytotoxicity.

`Fc1cccc2ncnc(N3CCCCC3c3cc4nc5c(c(N6CCOCC6)n4n3)CCCC5)c12` (centres unmarked) [Compound P10, 4-(2-(1-(5-fluoroquinazolin-4-yl)piperidin-2-yl)-5,6,7,8-tetrahydropyrazolo-[5,1-b]quinazolin-9-yl)morpholine]: in the data set on HeLa cells, the “TOX HELA pCC50” value stood at 4.6. In the data set on rgRSV224 virus, the EC50 is 891 nM.

In the case of `FC(F)(F)c1cccc2ncnc(N3CCCCC3c3cc4nc5c(c(N6CCOCC6)n4n3)CCCC5)c12` (centres unmarked) [Compound P11, 4-(2-(1-(5-(trifluoromethyl)quinazolin-4-yl)piperidin-2-yl)-5,6,7,8-tetrahydropyrazolo[5,1-b]quinazolin-9-yl)morpholine], the “TOX HELA pCC50” value with HeLa cells turned out to be 4.7. Besides, the EC50 in the data set with rgRSV224 virus was 676 nM.

With `COc1cccc2ncnc(N3CCCCC3c3cc4nc5c(c(N6CCOCC6)n4n3)CCCC5)c12` (centres unmarked) [Compound P12, 4-(2-(1-(5-methoxyquinazolin-4-yl)piperidin-2-yl)-5,6,7,8-tetrahydropyrazolo[5,1-b]quinazolin-9-yl)morpholine], the “TOX HELA pCC50” value with HeLa cells is 4.4. The EC50 in the data set on rgRSV224 virus is 75.9 nM.

`CCc1ccc2ncnc(N3CCCCC3c3cc4nc5c(c(N6CCOCC6)n4n3)CCCC5)c2c1C` (centres unmarked) [Compound P13, 4-(2-(1-(6-ethyl-5-methylquinazolin-4-yl)piperidin-2-yl)-5,6,7,8-tetrahydropyrazolo[5,1-b]quinazolin-9-yl)morpholine]: the “TOX HELA pCC50” value with HeLa cells is given as 4.7. Besides, in the data set on rgRSV224 virus, the EC50 is 724 nM.

With `Cc1ccc(NS(C)(=O)=O)c(C(=O)N2CCCCC2c2cc3nc4c(c(O)n3n2)CCCC4)c1` (centres unmarked) [Compound P14, N-(2-(2-(9-hydroxy-5,6,7,8-tetrahydropyrazolo[5,1-b]quinazolin-2-yl)-piperidine-1-carbonyl)-4-methylphenyl)methanesulfonamide], the “TOX HELA pCC50” value with HeLa cells worked out at 4.3. Moreover, the EC50 in the data set on rgRSV224 virus was 40.7 nM.

`Cc1ccc(NS(C)(=O)=O)c(C(=O)N2CCCCC2c2cc3nc4c(c(N(C)C)n3n2)CCCC4)c1` (centres unmarked) [Compound P15, N-(2-(2-(9-(dimethylamino)-5,6,7,8-tetrahydropyrazolo[5,1-b]quinazolin-2-yl)piperidine-1-carbonyl)-4-methylphenyl)methanesulfonamide]: the “TOX HELA pCC50” value in the data set on HeLa cells is listed as 4.6. For the same compound, the EC50 with rgRSV224 virus is 1.78 nM.

For `Cc1cccc2ncnc(N3CCCCC3c3cc4nc5c(c(N(C)C)n4n3)CCCC5)c12` (centres unmarked) [Compound P16, N,N-dimethyl-2-(1-(5-methylquinazolin-4-yl)piperidin-2-yl)-5,6,7,8-tetrahydropyrazolo[5,1-b]quinazolin-9-amine], the “TOX HELA pCC50” value with HeLa cells is given as 4. In addition, the EC50 in the data set with rgRSV224 virus was 407 nM.

Turning to `Cc1ccc(NS(C)(=O)=O)c(C(=O)N2CCCCC2c2cc3nc4c(cn3n2)CCCC4)c1` (centres unmarked) [Compound P17, N-(4-methyl-2-(2-(5,6,7,8-tetrahydropyrazolo[5,1-b]quinazolin-2-yl)-piperidine-1-carbonyl)phenyl)methanesulfonamide], the “TOX HELA pCC50” value in the data set on HeLa cells is recorded as 4.6. In the data set with rgRSV224 virus, the EC50 was 97.7 nM.

As for `Cc1cccc2ncnc(N3CCCCC3c3cc4nc5c(cn4n3)CCCC5)c12` (centres unmarked) [Compound P18, 2-(1-(5-methylquinazolin-4-yl)piperidin-2-yl)-5,6,7,8-tetrahydropyrazolo-[5,1-b]quinazoline], in the data set with HeLa cells, the “TOX HELA pCC50” value turned out to be 4.3. In addition, the EC50 in the data set with rgRSV224 virus was 3890 nM.

For `Cc1ccc(NS(C)(=O)=O)c(C(=O)N2CCCCC2c2cc3nc4c(c(N)n3n2)CCCC4)c1` (centres unmarked) [Compound P19, N-(2-(2-(9-amino-5,6,7,8-tetrahydropyrazolo[5,1-b]quinazolin-2-yl)-piperidine-1-carbonyl)-4-methylphenyl)methanesulfonamide], the “TOX HELA pCC50” value in the data set on HeLa cells is recorded as 4.3. Further, the EC50 with rgRSV224 virus is 19.5 nM.

With `Cc1ccc(NS(C)(=O)=O)c(C(=O)N2CCCCC2c2cc3nc4c(c(N5CCOCC5)n3n2)CCC4)c1` (centres unmarked) [Compound P20, N-(4-methyl-2-(2-(8-morpholino-6,7-dihydro-5H-cyclopenta[d]pyrazolo-[1,5-a]pyrimidin-2-yl)piperidine-1-carbonyl)phenyl)methanesulfonamide], in the data set with HeLa cells, the “TOX HELA pCC50” value turned out to be 4.2. Besides, the EC50 in the data set on rgRSV224 virus is 22.9 nM.

Consider `Cc1cccc2ncnc(N3CCCCC3c3cc4nc5c(c(N6CCOCC6)n4n3)CCC5)c12` (centres unmarked) [Compound P21, 4-(2-(1-(5-methylquinazolin-4-yl)piperidin-2-yl)-6,7-dihydro-5H-cyclopenta[d]pyrazolo[1,5-a]pyrimidin-8-yl)morpholine], for which the “TOX HELA pCC50” value with HeLa cells amounted to 4.6. The EC50 with rgRSV224 virus is 708 nM.

As to `Cc1cccc2ncnc(N3CCCCC3c3cc4nc5c(c(N6CCCC6)n4n3)CCC5)c12` (centres unmarked) [Compound P22, 2-(1-(5-methylquinazolin-4-yl)piperidin-2-yl)-8-(pyrrolidin-1-yl)-6,7-dihydro-5H-cyclopenta[d]pyrazolo[1,5-a]pyrimidine], the “TOX HELA pCC50” value in the data set with HeLa cells is listed as 4.6. Besides, the EC50 in the data set with rgRSV224 virus was 282 nM.

As to `Cc1ccc(NS(C)(=O)=O)c(C(=O)N2CCCCC2c2cc3nc4c(c(N5CCOCC5)n3n2)CCCCC4)c1` (centres unmarked) [Compound P23, N-(4-methyl-2-(2-(10-morpholino-6,7,8,9-tetrahydro-5H-cyclohepta[d]-pyrazolo[1,5-a]pyrimidin-2-yl)piperidine-1-carbonyl)phenyl)-methanesulfonamide], in the data set with HeLa cells, the “TOX HELA pCC50” value is 4.6. In the data set with rgRSV224 virus, the EC50 was 66.1 nM.

`Cc1cccc2ncnc(N3CCCCC3c3cc4nc5c(c(N6CCOCC6)n4n3)CCCCC5)c12` (centres unmarked) [Compound P24, 4-(2-(1-(5-methylquinazolin-4-yl)piperidin-2-yl)-6,7,8,9-tetrahydro-5H-cyclohepta[d]pyrazolo[1,5-a]pyrimidin-10-yl)morpholine]: the “TOX HELA pCC50” value in the data set with HeLa cells was found to be 4.8. In addition, the EC50 in the data set on rgRSV224 virus is 9550 nM.

`Cc1ccc(NS(C)(=O)=O)c(C(=O)N2CCCCC2c2cc3nc4c(c(N5CCOCC5)n3n2)COC4)c1` (centres unmarked) [Compound P25, N-(4-methyl-2-(2-(8-morpholino-5,7-dihydrofuro[3,4-d]pyrazolo[1,5-a]-pyrimidin-2-yl)piperidine-1-carbonyl)phenyl)methanesulfonamide]: the “TOX HELA pCC50” value with HeLa cells was 4. Besides, the EC50 in the data set on rgRSV224 virus was 468 nM.

With `Cc1ccc(NS(C)(=O)=O)c(C(=O)N2CCCCC2c2cc3nc4c(c(N(C)C)n3n2)CCCN4C)c1` (centres unmarked) [Compound P26, N-(2-(2-(9-(dimethylamino)-5-methyl-5,6,7,8-tetrahydropyrazolo-[1,5-a]pyrido[2,3-d]pyrimidin-2-yl)piperidine-1-carbonyl)-4-methylphenyl)-methane-sulfonamide], the “TOX HELA pCC50” value in the data set with HeLa cells came to 4.4. In the data set on rgRSV224 virus, the EC50 is 1.58 nM.

As for `Cc1ccc(NS(C)(=O)=O)c(C(=O)N2CCCCC2c2cc3nc(N(C)C)c4c(n3n2)N(C)CCC4)c1` (centres unmarked) [Compound P27, N-(2-(2-(5-(dimethylamino)-9-methyl-6,7,8,9-tetrahydropyrazolo-[1,5-a]pyrido[3,2-e]pyrimidin-2-yl)piperidine-1-carbonyl)-4-methylphenyl)methane-sulfonamide], the “TOX HELA pCC50” value in the data set on HeLa cells was 4.3. Further, the EC50 in the data set on rgRSV224 virus was 2.04 nM.

With `Cc1ccc(NS(C)(=O)=O)c(C(=O)N2CCCCC2c2cc3nc4c(c(N5CCOCC5)n3n2)CCOC4)c1` (centres unmarked) [Compound P28, N-(4-methyl-2-(2-(9-morpholino-7,8-dihydro-5H-pyrano[3,4-d]pyrazolo-[1,5-a]pyrimidin-2-yl)piperidine-1-carbonyl)phenyl)methane-sulfonamide], in the data set on HeLa cells, the “TOX HELA pCC50” value is reported as 4.6. Further, the EC50 in the data set on rgRSV224 virus was 355 nM.
